{"source": "paper PMC7018803", "about": "“A randomized, placebo-controlled, phase 1 study to evaluate the effects of TAK-063 on ketamine-induced changes in fMRI BOLD signal in healthy subjects” (Psychopharmacology, 2019)", "key": {"[1]": {"conditions": "0.12 mg/kg iv bolus then 0.31 mg/kg/h infusion; ref De Simoni et al. [2013]; cited from earlier work"}, "healthy male subjects": {"system": "healthy male subjects", "experiment": "Ketamine-induced changes in fMRI BOLD signal during resting state", "format": "in vivo, human", "method": "(§1) Subjects checked in on day − 1 of each treatment period during which vital signs, electrocardiogram (ECG), and laboratory safety tests were repeated. On day 1 of each treatment period, subjects received a 3-, 10-, or 30-mg TAK-063 dose or placebo tablets. Participants then relaxed, slept, or watched movies while remaining in the research environment. Ketamine (0.12 mg/kg intravenous bolus over 60 s followed by a continuous infusion of 0.31 mg/kg/h over approximately 150 min) was administered 4 h after TAK-063 or placebo (Fig. 1). This ketamine dose was based on a previous study that achieved steady-state concentrations of 75 ng/mL and provided a robust BOLD signal with minimal psychotomimetic symptoms (De Simoni et al. [2013]).\nThe scanning protocol for the current study was very comprehensive and included multiple MR approaches. This publication reports the BOLD fMRI data for the working memory task, but also resting state fMRI. The magnetic scanning portion of the neuroimaging test battery was initiated 20 min before ketamine dosing. Imaging was performed using a 3 Tesla Siemens Trio scanner. The MR scanning protocol was initiated 20 min before ketamine dosing; prior to scanning, a structural magnetization prepared rapid gradient echo (MPRAGE) scan was collected. As part of the scanning protocol, each subject received 20 min of scanning − 10 min arterial spin labeling (ASL) plus 10 min resting BOLD prior to ketamine infusion. After ketamine infusion, the resting state fMRI BOLD acquisition continued for an additional 10 min. Next, a Spatial Working Memory task-induced fMRI BOLD acquisition was performed for 15 min. Following these BOLD acquisitions, another 10 min ASL scan was acquired and a 10-min T1 relaxometry scan was conducted. The MR scanning sequence ended with a 5-min MPRAGE acquisition.\nFifty sequential gradient-echo echoplanar images (EPIs) sensitive to blood oxygenation level-dependent (BOLD) signal were collected in contiguous slices of 6-mm thickness, with 3000-ms repetition time, 40-ms echo time, 20 × 20-cm field of view, a 64 × 64 image matrix, 70° flip angle, and an in-plane resolution of 3 × 3 mm. A working memory challenge based on the expectancy A-X Continuous Performance Test (AX-CPT) paradigm was presented. The AX-CPT task was implemented in Eprime and presents 144 trials in four blocks of 36 trials. Before scanning, participants practiced the task (Barch et al. [2001]; MacDonald et al. [2003]).\nWe conducted a number of pre-processing steps to standardize examination of data after acquisition. These steps included (a) using the anatomical image (T1 weighted MPRAGE acquired for each subject at the beginning of the imaging session) to determine the parameters for spatial normalization to the EPI template image supplied with statistical parametric mapping (SPM) using a 12-parameter transformation; (b) registering functional images to correct for subject movement during the experimental paradigm; (c) normalizing functional images to transform images from analyzed subjects into the same standard space; (d) smoothing images (8-mm full width at half maximum [FWHM]) to minimize normalization artifacts and improve signal to noise ratio; (e) applying a high pass filter of 1200 s to the data following spatial smoothing to minimize the influence of very low frequency noise present in fMRI BOLD data without distorting the ketamine response profile. […]"}, "[2]": {"experiment": "Plasma ketamine concentrations during intravenous bolus plus continuous infusion", "format": "in vivo", "conditions": "human", "method": "as §1\nBlood samples were collected for the determination of TAK-063 and ketamine concentrations, and ketamine concentrations were used to verify intravenous delivery of ketamine. Blood samples for determination of TAK-063 concentration were collected at pre-dose and at 0.5, 2, 3, 4.5, 6, 8, 10, 12, and 24 h post dose. Blood samples for determination of ketamine concentration were collected at 0.5, 1, 2, and 2.5 h after administration of ketamine. The target ketamine concentration was established at 75 ng/mL. PK samples were not collected from the arm in which ketamine was administered."}, "healthy human subjects": {"system": "healthy human subjects", "conditions": "cited from earlier work"}}, "data": [{"smiles": "CNC1(c2ccccc2Cl)CCCCC1=O", "note": "(stereo not drawn) [ketamine]", "values": [{"measurement": "steady-state concentration", "setting": "[1]", "result": 75, "unit": "ng/mL"}, {"measurement": "activation in ROIs", "setting": "healthy male subjects; percent BOLD signal change, resting state (Fig. 7)", "result": "increased activation in all ROIs examined"}, {"measurement": "effect on fMRI BOLD resting signal", "setting": "healthy male subjects; placebo group, most regions studied", "result": "increased fMRI BOLD resting signal"}, {"measurement": "effect on fMRI BOLD in cingulate/BA25", "setting": "healthy male subjects; placebo group, resting state", "result": "decrease in fMRI BOLD"}, {"measurement": "concentration at 30 min", "setting": "[2]; 30 min post dose, with placebo or TAK-063 3 to 30 mg, range of means", "result": "69.9 to 83.3", "unit": "ng/mL"}, {"measurement": "Cmax", "setting": "[2]; during continuous infusion, range of means across regimens", "result": "168 to 179", "unit": "ng/mL"}, {"measurement": "Tmax", "setting": "[2]; range across regimens", "result": "2.3 to 2.5", "unit": "h"}]}, {"smiles": "Cc1nc2n(c(=O)c1CCN1CCC(c3noc4cc(F)ccc34)CC1)CCCC2", "note": "[risperidone]", "values": [{"measurement": "ketamine-induced changes in BOLD signal", "setting": "healthy human subjects; ref Doyle et al. [2013], Shcherbinin et al. [2015]", "result": "reversed"}, {"measurement": "ketamine-induced changes in brain perfusion (ASL)", "setting": "healthy human subjects; ref Shcherbinin et al. [2015]", "result": "increased ketamine-induced perfusion changes"}]}]}
